Measurements published in patent US20250296959A1, “B7-H3 TARGETING PEPTIDES AND CONSTRUCTS THEREOF” (Mariana Oncology Inc., priority 2024, published 2025).
pKd: −log10 of the molar value. One block for each compound: values may come before it. Starred links: 1 amine or outer side, 2 acyl side, 3 side chain; linkers in the order of their positions; H or OH if unused. Positions of bridges follow the written chain, without caps; N, C: chain ends. Non-standard residues stand in square brackets, D forms with d. Residues, ends and D or L forms follow the SMILES beside them. *: point of attachment. Ala(piperidin-4-yl) = O=C([C@H](CC1CCN([*:3])CC1)N[*:1])[*:2]; DOTA = O=C(O)CN1CCN(CC(=O)O)CCN(CC(=O)*)CCN(CC(=O)O)CC1; Trp(5-F) = N[C@@H](Cc1c[nH]c2ccc(F)cc12)C(=O)O; 1Nal = N[C@@H](Cc1cccc2ccccc12)C(=O)O; Ala(4-THP) = N[C@@H](CC1CCOCC1)C(=O)O; Gly(4-THP) = N[C@H](C(=O)O)C1CCOCC1; Val(3-OH) = CC(C)(O)[C@H](N)C(=O)O; 4Pal = N[C@@H](Cc1ccncc1)C(=O)O; Abu(4-CN) = N#CCC[C@H](N)C(=O)O; Cha = N[C@@H](CC1CCCCC1)C(=O)O; Chg = N[C@H](C(=O)O)C1CCCCC1; Tle = CC(C)(C)[C@H](N)C(=O)O; hLeu = CC(C)CC[C@H](N)C(=O)O; NMeS = CN[C@@H](CO)C(=O)O; Nle = CCCC[C@H](N)C(=O)O

Biological target: T1, human 4lg B7-H3 (Homo sapiens, UniProt Q5ZPR3)
T1 sequence (Q5ZPR3 29-534): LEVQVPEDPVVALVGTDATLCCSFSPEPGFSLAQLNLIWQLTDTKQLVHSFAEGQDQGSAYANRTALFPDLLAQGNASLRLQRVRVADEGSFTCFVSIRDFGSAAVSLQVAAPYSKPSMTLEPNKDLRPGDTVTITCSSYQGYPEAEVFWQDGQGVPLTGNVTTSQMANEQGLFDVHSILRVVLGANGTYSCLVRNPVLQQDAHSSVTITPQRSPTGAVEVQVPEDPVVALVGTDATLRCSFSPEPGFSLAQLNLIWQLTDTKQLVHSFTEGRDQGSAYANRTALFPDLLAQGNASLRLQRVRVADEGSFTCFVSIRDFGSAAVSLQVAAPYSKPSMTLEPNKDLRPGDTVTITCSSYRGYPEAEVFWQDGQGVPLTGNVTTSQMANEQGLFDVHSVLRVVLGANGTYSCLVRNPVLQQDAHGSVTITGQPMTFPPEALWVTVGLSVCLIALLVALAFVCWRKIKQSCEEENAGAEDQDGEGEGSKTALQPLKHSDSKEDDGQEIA
Assay: Affinity determination by surface plasmon resonance (SPR) to 4Ig B7-H3
Conditions: SPR KD—25° C., 4Ig B7-H3; 25° C. flow cell temperature

Compound: CC(=O)N[C@@H](CCC(C)C)C(=O)N[C@H](C(=O)N[C@H]1CSSC[C@@H](C(=O)N[C@@H](Cc2c[nH]c3ccc(F)cc23)C(=O)N[C@@H](Cc2ccccc2)C(=O)N(C)[C@@H](CO)C(=O)N[C@H](CCCCNC(=O)CN2CCN(CC(=O)O)CCN(CC(=O)O)CCN(CC(=O)O)CC2)C(N)=O)NC(=O)[C@H](Cc2ccc(O)cc2)NC(=O)[C@H](C(C)C)NC(=O)[C@H](CC(=O)O)NC(=O)[C@H](Cc2ccc(O)cc2)NC(=O)[C@H](CC2CCNCC2)NC(=O)CNC(=O)[C@H](C(C)C)NC1=O)C1CCOCC1 [compound 213, Ac-hLeu-ThpG-C-V-G-PipAla-Y-D-V-Y-C-5FW-F-NMeSer-dLys(DOTA)-CONH2] (Ac-[hLeu][Gly(4-THP)]CVG[Ala(piperidin-4-yl)]YDVYC[Trp(5-F)]F[NMeS][dK](DOTA)-NH2; disulfide 3-11)
pKd: 6.52 to 7.00

Compound: CC(=O)N[C@@H](CCC(C)C)C(=O)N[C@@H](Cc1ccc(O)cc1)C(=O)N[C@H]1CSSC[C@@H](C(=O)N[C@@H](Cc2cccc3ccccc23)C(=O)N[C@@H](Cc2ccccc2)C(=O)N(C)[C@@H](CO)C(=O)N[C@H](CCCCNC(=O)CN2CCN(CC(=O)O)CCN(CC(=O)O)CCN(CC(=O)O)CC2)C(N)=O)NC(=O)[C@H](CC2CCCCC2)NC(=O)[C@H](C(C)C)NC(=O)[C@H](CC(=O)O)NC(=O)[C@H](Cc2ccncc2)NC(=O)[C@H](CCCCN)NC(=O)CNC(=O)[C@H](C(C)(C)C)NC1=O [compound 220, Ac-hLeu-Y-C-Tbg-G-K-4PyA-D-V-Cha-C-1Nal-F-NMeSer-dLys(DOTA)-CONH2] (Ac-[hLeu]YC[Tle]GK[4Pal]DV[Cha]C[1Nal]F[NMeS][dK](DOTA)-NH2; disulfide 3-11)
pKd: 7.00 to 8.00

Compound: CC(=O)N[C@@H](CCC(C)C)C(=O)N[C@@H](Cc1ccc(O)cc1)C(=O)N[C@H]1CSSC[C@@H](C(=O)N[C@@H](Cc2cccc3ccccc23)C(=O)N[C@@H](Cc2ccccc2)C(=O)N(C)[C@@H](CO)C(=O)N[C@H](CCCCNC(=O)CN2CCN(CC(=O)O)CCN(CC(=O)O)CCN(CC(=O)O)CC2)C(N)=O)NC(=O)[C@H](CCC#N)NC(=O)[C@H](C(C)C)NC(=O)[C@H](CC(=O)O)NC(=O)[C@H](Cc2ccncc2)NC(=O)[C@H](CCCCN)NC(=O)CNC(=O)[C@H](C(C)(C)C)NC1=O [compound 221, Ac-hLeu-Y-C-Tbg-G-K-4PyA-D-V-CyanoButric-C-1Nal-F-NMeSer-dLys(DOTA)-CONH2] (Ac-[hLeu]YC[Tle]GK[4Pal]DV[Abu(4-CN)]C[1Nal]F[NMeS][dK](DOTA)-NH2; disulfide 3-11)
pKd: 6.52 to 7.00

Compound: CC(=O)N[C@@H](CCC(C)C)C(=O)N[C@@H](Cc1ccc(O)cc1)C(=O)N[C@H]1CSSC[C@@H](C(=O)N[C@@H](Cc2cccc3ccccc23)C(=O)N[C@@H](Cc2ccccc2)C(=O)N(C)[C@@H](CO)C(=O)N[C@H](CCCCNC(=O)CN2CCN(CC(=O)O)CCN(CC(=O)O)CCN(CC(=O)O)CC2)C(N)=O)NC(=O)[C@H](CC2CCOCC2)NC(=O)[C@H](C(C)C)NC(=O)[C@H](CC(=O)O)NC(=O)[C@H](Cc2ccncc2)NC(=O)[C@H](CCCCN)NC(=O)CNC(=O)[C@H](C(C)(C)C)NC1=O [compound 223, Ac-hLeu-Y-C-Tbg-G-K-4PyA-D-V-ThpA-C-1Nal-F-NMeSer-dLys(DOTA)-CONH2] (Ac-[hLeu]YC[Tle]GK[4Pal]DV[Ala(4-THP)]C[1Nal]F[NMeS][dK](DOTA)-NH2; disulfide 3-11)
pKd: 7.00 to 8.00

Compound: CCCC[C@@H]1NC(=O)[C@H](C(C)C)NC(=O)[C@H](CC(=O)O)NC(=O)[C@H](Cc2ccncc2)NC(=O)[C@H](CCCCN)NC(=O)CNC(=O)[C@H](C(C)(C)C)NC(=O)[C@@H](NC(=O)[C@H](Cc2ccc(O)cc2)NC(=O)[C@H](CCC(C)C)NC(C)=O)CSSC[C@@H](C(=O)N[C@@H](Cc2cccc3ccccc23)C(=O)N[C@@H](Cc2ccccc2)C(=O)N(C)[C@@H](CO)C(=O)N[C@H](CCCCNC(=O)CN2CCN(CC(=O)O)CCN(CC(=O)O)CCN(CC(=O)O)CC2)C(N)=O)NC1=O [compound 225, Ac-hLeu-Y-C-Tbg-G-K-4PyA-D-V-Nle-C-1Nal-F-NMeSer-dLys(DOTA)-CONH2] (Ac-[hLeu]YC[Tle]GK[4Pal]DV[Nle]C[1Nal]F[NMeS][dK](DOTA)-NH2; disulfide 3-11)
pKd: 7.00 to 8.00

Compound: CC[C@H](C)[C@@H]1NC(=O)[C@@H](NC(=O)[C@H](Cc2ccc(O)cc2)NC(=O)[C@H](CCC(C)C)NC(C)=O)CSSC[C@@H](C(=O)N[C@@H](Cc2c[nH]c3ccc(F)cc23)C(=O)N[C@@H](Cc2ccccc2)C(=O)N(C)[C@@H](CO)C(N)=O)NC(=O)[C@H](Cc2ccc(O)cc2)NC(=O)[C@H](C(C)C)NC(=O)[C@H](CC(=O)O)NC(=O)[C@H](CC2CCCCC2)NC(=O)[C@H](CCCCNC(=O)CN2CCN(CC(=O)O)CCN(CC(=O)O)CCN(CC(=O)O)CC2)NC(=O)CNC1=O [compound 232, Ac-hLeu-Y-C-Ile-G-Lys(DOTA)-CHA-D-V-Y-C-5FW-F-NMeSer-CONH2] (Ac-[hLeu]YCIGK(DOTA)[Cha]DVYC[Trp(5-F)]F[NMeS]-NH2; disulfide 3-11)
pKd: 7.00 to 8.00

Compound: CC(=O)N[C@@H](CCC(C)C)C(=O)N[C@@H](Cc1ccc(O)cc1)C(=O)N[C@H]1CSSC[C@@H](C(=O)N[C@@H](Cc2c[nH]c3ccc(F)cc23)C(=O)N[C@@H](Cc2ccccc2)C(=O)N(C)[C@@H](CO)C(N)=O)NC(=O)[C@H](Cc2ccc(O)cc2)NC(=O)[C@H](C(C)C)NC(=O)[C@H](CC(=O)O)NC(=O)[C@H](CC2CCCCC2)NC(=O)[C@H](CCCCNC(=O)CN2CCN(CC(=O)O)CCN(CC(=O)O)CCN(CC(=O)O)CC2)NC(=O)CNC(=O)[C@H](C(C)C)NC1=O [compound 233, Ac-hLeu-Y-C-V-G-Lys(DOTA)-CHA-D-V-Y-C-5FW-F-NMeSer-CONH2] (Ac-[hLeu]YCVGK(DOTA)[Cha]DVYC[Trp(5-F)]F[NMeS]-NH2; disulfide 3-11)
pKd: 7.00 to 8.00

The next lines start with the values.

pKd: > 9.00
Compound: CC(=O)N[C@@H](CCC(C)C)C(=O)N[C@@H](Cc1ccc(O)cc1)C(=O)N[C@H]1CSSC[C@@H](C(=O)N[C@@H](Cc2c[nH]c3ccccc23)C(=O)N[C@@H](Cc2ccccc2)C(=O)N[C@H](C(=O)N[C@H](CCCCNC(=O)CN2CCN(CC(=O)O)CCN(CC(=O)O)CCN(CC(=O)O)CC2)C(N)=O)[C@@H](C)O)NC(=O)[C@H](Cc2ccc(O)cc2)NC(=O)[C@H](C2CCCCC2)NC(=O)[C@H](CC(=O)O)NC(=O)[C@H](Cc2ccc(O)cc2)NC(=O)[C@H](CCCCN)NC(=O)CNC(=O)[C@H](C(C)(C)C)NC1=O [compound 216, Ac-hLeu-Y-C-Tbg-G-K-Y-D-ChG-Y-C-W-F-Thr-dLys(DOTA)-CONH2] (Ac-[hLeu]YC[Tle]GKYD[Chg]YCWFT[dK](DOTA)-NH2; disulfide 3-11)

pKd: 8.00 to 9.00
Compound: CCCC[C@@H]1NC(=O)[C@@H](NC(=O)[C@H](Cc2ccc(O)cc2)NC(=O)[C@H](CCC(C)C)NC(C)=O)CSSC[C@@H](C(=O)N[C@@H](Cc2c[nH]c3ccc(F)cc23)C(=O)N[C@@H](Cc2ccccc2)C(=O)N[C@H](C(=O)N[C@H](CCCCNC(=O)CN2CCN(CC(=O)O)CCN(CC(=O)O)CCN(CC(=O)O)CC2)C(N)=O)[C@@H](C)O)NC(=O)[C@H](Cc2ccc(O)cc2)NC(=O)[C@H](C(C)C)NC(=O)[C@H](CC(=O)O)NC(=O)[C@H](Cc2ccc(O)cc2)NC(=O)[C@H](CCCCN)NC(=O)CNC1=O [compound 217, Ac-hLeu-Y-C-Nle-G-K-Y-D-V-Y-C-5FW-F-Thr-dLys(DOTA)-CONH2] (Ac-[hLeu]YC[Nle]GKYDVYC[Trp(5-F)]FT[dK](DOTA)-NH2; disulfide 3-11)

pKd: 8.00 to 9.00
Compound: CC(=O)N[C@@H](CCC(C)C)C(=O)N[C@@H](Cc1ccc(O)cc1)C(=O)N[C@H]1CSSC[C@@H](C(=O)N[C@@H](Cc2cccc3ccccc23)C(=O)N[C@@H](Cc2ccccc2)C(=O)N(C)[C@@H](CO)C(=O)N[C@H](CCCCNC(=O)CN2CCN(CC(=O)O)CCN(CC(=O)O)CCN(CC(=O)O)CC2)C(N)=O)NC(=O)[C@H](Cc2ccc(O)cc2)NC(=O)[C@H](C(C)C)NC(=O)[C@H](CC(=O)O)NC(=O)[C@H](Cc2ccncc2)NC(=O)[C@H](CCCCN)NC(=O)CNC(=O)[C@H](C(C)(C)C)NC1=O [compound 219, Ac-hLeu-Y-C-Tbg-G-K-4PyA-D-V-Y-C-1Nal-F-NMeSer-dLys(DOTA)-CONH2] (Ac-[hLeu]YC[Tle]GK[4Pal]DVYC[1Nal]F[NMeS][dK](DOTA)-NH2; disulfide 3-11)

pKd: 8.00 to 9.00
Compound: CC(=O)N[C@@H](CCC(C)C)C(=O)N[C@@H](Cc1ccc(O)cc1)C(=O)N[C@H]1CSSC[C@@H](C(=O)N[C@@H](Cc2c[nH]c3ccc(F)cc23)C(=O)N[C@@H](Cc2ccccc2)C(=O)N(C)[C@@H](CO)C(N)=O)NC(=O)[C@H](Cc2ccc(O)cc2)NC(=O)[C@H](C(C)C)NC(=O)[C@H](CC(=O)O)NC(=O)[C@H](Cc2ccncc2)NC(=O)[C@H](CCCCNC(=O)CN2CCN(CC(=O)O)CCN(CC(=O)O)CCN(CC(=O)O)CC2)NC(=O)CNC(=O)[C@H](C(C)C)NC1=O [compound 228, Ac-hLeu-Y-C-V-G-Lys(DOTA)-4PyA-D-V-Y-C-5FW-F-NMeSer-CONH2] (Ac-[hLeu]YCVGK(DOTA)[4Pal]DVYC[Trp(5-F)]F[NMeS]-NH2; disulfide 3-11)

pKd: > 9.00
Compound: CC(=O)N[C@@H](CCC(C)C)C(=O)N[C@@H](Cc1ccc(O)cc1)C(=O)N[C@H]1CSSC[C@@H](C(=O)N[C@@H](Cc2c[nH]c3ccc(F)cc23)C(=O)N[C@@H](Cc2ccccc2)C(=O)N[C@H](C(N)=O)C(C)(C)O)NC(=O)[C@H](Cc2ccc(O)cc2)NC(=O)[C@H](C(C)C)NC(=O)[C@H](CC(=O)O)NC(=O)[C@H](Cc2ccncc2)NC(=O)[C@H](CCCCNC(=O)CN2CCN(CC(=O)O)CCN(CC(=O)O)CCN(CC(=O)O)CC2)NC(=O)CNC(=O)[C@H](C(C)C)NC1=O [compound 229, Ac-hLeu-Y-C-V-G-Lys(DOTA)-4PyA-D-V-Y-C-5FW-F-hydroxyVal-CONH2] (Ac-[hLeu]YCVGK(DOTA)[4Pal]DVYC[Trp(5-F)]F[Val(3-OH)]-NH2; disulfide 3-11)
